Measurements reported in US6395906B1, “Intermediates to pesticidal 1-arylpyrazoles” (Rhone-Poulenc Inc., priority 1995, dated 2002).

Experiments:
Assay type in all cases: in vivo
[1] = test system: tobacco budworm (Heliothis virescens); test: Tobacco budworm (TBW) treated cotton leaf test; conditions: cotton leaves, 100 ppm; second instar larvae, five days
Method in brief: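 Leaf-dip test: cotton leaves wetted to runoff with 100 ppm compound in DMF/acetone/emulsifier/water, dried, then offered to ten second-instar Heliothis virescens larvae in closed cups with moist wicks. Mortality scored after five days; larvae unable to move one body length on prodding counted dead; solvent-emulsifier control run alongside.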

[2] = test system: buckthorn aphid (Aphis nasturtii); test: Buckthorn aphid (BA) foliar spray test; conditions: nasturtium plants wet to runoff, 100 or 500 ppm; dead aphids counted after one day
Procedure: (§1) For the tick, aphids, souther armyworm, tobacco budworm, house fly, Mexican bean beetle, American cockroach, cat flea, souther corn rootworm, western corn rootworm, black cutworm, and southern root-knot nematode, a solution or suspension was prepared by adding the test compound to a solution of dimethylformamide, acetone, emulsifiers which are alkylaryl polyether alcohols organic sulfonates, and water. The result was a 100 or 500 ppm concentration of the test compound.
Buckthorn aphid (BA) or cotton aphid (CA): Adult and nymphal stages of buckthorn or cotton aphid were reared on potted dwarf nasturtium or cotton plants, respectively. Plants infested with 100-150 aphids were wet to runoff with the 100 or 500 ppm test compound formulation. As an untreated control, a water-acetone-DMF-emulsifier solution containing no test compound was also applied to runoff to infested plants. The treated plants were stored for one day for buckthorn aphid and three days for cotton aphid, after which the dead aphids were counted.

[3] = test system: Mexican bean beetle (Epilachna varivestis); test: Mexican bean beetle (MBB) treated bean leaf test; conditions: bean leaves, 100 or 500 ppm; second instar larvae, five days
Procedure: as §1
Southern armyworm (SAW), Mexican bean beetle (MBB): Bean leaves were wet to runoff with the 100 or 500 ppm test compound formulation. As an untreated control, a water-acetone-DMF-emulsifier solution containing no test compound was also applied wet to runoff to bean leaves. Five or six randomly selected second instar southern armyworn larvae or Mexican bean bettle larvae were introduced into each plastic container with the dry treated leaves. The container was closed and held for five days. Larvae which were unable to move the length of the body, even upon stimulation by prodding, were considered dead.

[4] = test system: American cockroach (Periplaneta americana); test: American cockroach (ACR) treated food pellet test; conditions: food pellets with 500 ppm formulation; nymphs, contact and feeding mortality 1 and 5 days after infestation
Method in brief: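 Pet-food pellets treated with 500 ppm compound in DMF/acetone/emulsifier/water; solvent-only blank as control. Nymphs added after 48 h; contact and feeding mortality scored 1 and 5 days post-infestation.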

[5] = test system: cat flea (Ctenocephalides felis); test: Cat flea (CF) treated filter paper contact test; conditions: 500 ppm, adult fleas, contact mortality 1 day after infestation
Procedure: as §1
(§2) Cat flea (CF), dog tick (DT): Filter papers were treated with an aliquot of the 500 ppm test formulation. As an untreated control, an aliquot of a water-acetone-DMF-emulsifier solution containing no test compound was applied in a similar manner. When dry, 2 treated filters were placed in a vial for the flea and another 2 filters in a vial for the tick. Five adult fleas were added to one vial and 5 adult ticks to the second vial. Contact mortality was assessed 1 day after infestation for the flea and 14 days after infestation for the tick.

[6] = test system: dog tick (Rhipicephalus sanguineus); test: Dog tick (DT) treated filter paper contact test; conditions: 500 ppm, adult ticks, contact mortality 14 days after infestation
Procedure: as §1, §2

[7] = test system: western corn rootworm (Diabrotica virgifera virgifera); test: Western corn rootworm (WCRW) soil test; conditions: soil concentration 0.15 or 0.5 ppm; neonate larvae, mortality six days after infestation
Method in brief: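 Test formulation applied to dry sandy loam soil in a jar for 0.15 or 0.5 ppm soil concentration; solvent-only untreated control. After 24 h covered incubation, four germinated corn seedlings and ten neonate larvae added. Mortality assessed 6 days after infestation by Berlese funnel extraction.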

`CC(=O)c1c(S(=O)(=O)C(F)(F)F)c(C#N)nn1-c1c(Cl)cc(C(F)(F)F)cc1Cl` [Compound 1, 5-Acetyl-3-cyano-1-(2,6-dichloro-4-trifluoromethylphenyl)-4-trifluoromethylsulfonylpyrazole] was tested, and the TBW [1] was “+ (active against 1 or more insects described above up to 100% mortality. This activity is indicated by a “+”)”, the BA [2] was “+ (active against 1 or more insects described above up to 100% mortality. This activity is indicated by a “+”)” and the MBB [3] was “+ (active against 1 or more insects described above up to 100% mortality. This activity is indicated by a “+”)”.

`CCOC(OCC)c1c(SC(F)(F)F)c(C#N)nn1-c1c(Cl)cc(C(F)(F)F)cc1Cl` [Compound 18, 3-Cyano-1-(2,6-dichloro-4-trifluoromethylphenyl)-5-diethoxymethyl-4-trifluoromethylthiopyrazole] was tested, and the ACR [4] was “+ (active against 1 or more insects described above up to 100% mortality. This activity is indicated by a “+”)”, the CF [5] was “+ (active against 1 or more insects described above up to 100% mortality. This activity is indicated by a “+”)” and the DT [6] was “+ (active against 1 or more insects described above up to 100% mortality. This activity is indicated by a “+”)”. The WCRW [7] was “+ (active against 1 or more insects described above up to 100% mortality. This activity is indicated by a “+”)”.
